Like-named read-outs stand apart in the source and are kept apart here.
Experiments:
Assay in all cases: Test D pre-/postemergence plant response
Type in all cases: in vivo
[1] = tested on: johnsongrass (Sorghum halepense); conditions: Sorghum halepense, pre-emergence, Preemergence, scale 0 to 100 (0 no effect, 100 complete control), read-out: Plant response rating, Johnsongrass
Source text: (§1) Seeds of plant species selected from blackgrass (Alopecurus myosuroides), Italian ryegrass (Lolium multiflorum), winter wheat (Triticum aestivum), galium (catchweed bedstraw, Galium aparine), corn (Zea mays), large (Lg) crabgrass (Digitaria sanguinalis), giant foxtail (Setaria faberii), johnsongrass (Sorghum halepense), lambsquarters (Chenopodium album), morningglory (Ipomoea coccinea), yellow nutsedge (Cyperus esculentus), pigweed (Amaranthus retroflexus), ragweed (common ragweed, Ambrosia elatior), soybean (Glycine max), bamyardgrass (Echinochloa crus-galli), oilseed rape (Brassica napus), waterhemp (common waterhemp, Amaranthus rudis), and velvetleaf (Abutilon theophrasti) were planted into a blend of loam soil and sand and treated preemergence with test chemicals formulated in a non-phytotoxic solvent mixture which included a surfactant. At the same time, plants selected from these crop and weed species and also kochia (Kochia scoparia), wild oat (Avena fatua), and chickweed (common chickweed, Stellaria media) were planted in pots containing Redi-Earth® planting medium (Scotts Company, 14111 Scottslawn Road, Marysville, Ohio 43041) comprising spaghnum peat moss, vermiculite, wetting agent and starter nutrients and treated with postemergence applications of test chemicals formulated in the same manner. Plants ranged in height from 2 to 18 cm (1- to 4-leaf stage) for postemergence treatments. Treated plants and controls were maintained in a greenhouse for 13 to 15 days, after which time all species were compared to controls and visually evaluated. Plant response ratings, summarized in Table D, are based on a scale of 0 to 100 where 0 is no effect and 100 is complete control. A dash (-) response means no test result.

[2] = tested on: lambsquarters (Chenopodium album); conditions: Chenopodium album; for pest or weed control at 16 g/ha: 16 g ai/ha; for pest or weed control at 31 g/ha: 31 g ai/ha; for pest or weed control at 62 g/ha: 62 g ai/ha; for pest or weed control at 125 g/ha: 125 g ai/ha
Source text: as §1

[3] = tested on: large (Lg) crabgrass (Digitaria sanguinalis); conditions: Digitaria sanguinalis; for pest or weed control at 16 g/ha: 16 g ai/ha; for pest or weed control at 31 g/ha: 31 g ai/ha; for pest or weed control at 62 g/ha: 62 g ai/ha; for pest or weed control at 125 g/ha: 125 g ai/ha
Source text: as §1

[4] = tested on: velvetleaf (Abutilon theophrasti); conditions: Abutilon theophrasti; for pest or weed control at 16 g/ha: 16 g ai/ha; for pest or weed control at 31 g/ha: 31 g ai/ha; for pest or weed control at 62 g/ha: 62 g ai/ha; for pest or weed control at 125 g/ha: 125 g ai/ha
Source text: as §1

[5] = tested on: winter wheat (Triticum aestivum); conditions: Triticum aestivum; for plant injury at 16 g/ha: 16 g ai/ha; for plant injury at 31 g/ha: 31 g ai/ha; for plant injury at 62 g/ha: 62 g ai/ha; for plant injury at 125 g/ha: 125 g ai/ha
Source text: as §1

[6] = post-emergence, Postemergence, scale 0 to 100 (0 no effect, 100 complete control), read-out: Lambsquarters plant response rating
[7] = post-emergence, Postemergence, scale 0 to 100, 0 no effect, 100 complete control, read-out: Plant response rating, Lambsquarters
[8] = pre-emergence, Preemergence, scale 0 to 100 (0 no effect, 100 complete control), read-out: Plant response rating, Lambsquarters
[9] = post-emergence, Postemergence, scale 0 to 100 (0 no effect, 100 complete control), read-out: Crabgrass, Large plant response rating
[10] = post-emergence, Postemergence, scale 0 to 100, 0 no effect, 100 complete control, read-out: Plant response rating, Crabgrass, Large
[11] = pre-emergence, Preemergence, scale 0 to 100 (0 no effect, 100 complete control), read-out: Plant response rating, Crabgrass, Large
[12] = post-emergence, Postemergence, scale 0 to 100 (0 no effect, 100 complete control), read-out: Velvetleaf plant response rating
[13] = post-emergence, Postemergence, scale 0 to 100, 0 no effect, 100 complete control, read-out: Plant response rating, Velvetleaf
[14] = pre-emergence, Preemergence, scale 0 to 100 (0 no effect, 100 complete control), read-out: Plant response rating, Velvetleaf
[15] = post-emergence, Postemergence, scale 0 to 100 (0 no effect, 100 complete control), read-out: Wheat plant response rating
[16] = post-emergence, Postemergence, scale 0 to 100, 0 no effect, 100 complete control, read-out: Plant response rating, Wheat
[17] = pre-emergence, Preemergence, scale 0 to 100 (0 no effect, 100 complete control), read-out: Plant response rating, Wheat

Fc1cccc(Oc2ncc(Cl)cn2)c1-c1cc(C(F)F)on1 [Compound 55, 5-chloro-2-[2-[5-(difluoromethyl)-3-isoxazolyl]-3-fluorophenoxy]pyrimidine]
pest or weed control at 31 g/ha ([1]; 31 g ai/ha): 75%
pest or weed control at 62 g/ha ([1]; 62 g ai/ha): 85%
pest or weed control at 16 g/ha [2, 6]: 75%
pest or weed control at 31 g/ha [2, 6]: 85%
pest or weed control at 62 g/ha [2, 7]: 98%
pest or weed control at 125 g/ha [2, 7]: 98%
pest or weed control at 125 g/ha ([2]; pre-emergence, Preemergence, read-out: Plant response rating (scale 0 to 100), Lambsquarters): 98%
pest or weed control at 16 g/ha [2, 8]: 100%
pest or weed control at 31 g/ha [2, 8]: 100%
pest or weed control at 62 g/ha [2, 8]: 100%
pest or weed control at 16 g/ha [3, 9]: 5%
pest or weed control at 31 g/ha [3, 9]: 10%
pest or weed control at 62 g/ha [3, 10]: 10%
pest or weed control at 125 g/ha [3, 10]: 15%
pest or weed control at 125 g/ha ([3]; pre-emergence, Preemergence, read-out: Plant response rating (scale 0 to 100), Crabgrass, Large): 100%
pest or weed control at 16 g/ha [3, 11]: 100%
pest or weed control at 31 g/ha [3, 11]: 100%
pest or weed control at 62 g/ha [3, 11]: 100%
pest or weed control at 16 g/ha [4, 12]: 35%
pest or weed control at 31 g/ha [4, 12]: 50%
pest or weed control at 62 g/ha [4, 13]: 75%
pest or weed control at 125 g/ha [4, 13]: 85%
pest or weed control at 125 g/ha ([4]; pre-emergence, Preemergence, read-out: Plant response rating (scale 0 to 100), Velvetleaf): 100%
pest or weed control at 16 g/ha [4, 14]: 90%
pest or weed control at 31 g/ha [4, 14]: 100%
pest or weed control at 62 g/ha [4, 14]: 100%
plant injury at 16 g/ha [5, 15]: 5%
plant injury at 31 g/ha [5, 15]: 25%
plant injury at 62 g/ha [5, 16]: 30%
plant injury at 125 g/ha [5, 16]: 35%
plant injury at 125 g/ha ([5]; pre-emergence, Preemergence, read-out: Plant response rating (scale 0 to 100), Wheat): 60%
plant injury at 16 g/ha [5, 17]: 0%
plant injury at 31 g/ha [5, 17]: 0%
plant injury at 62 g/ha [5, 17]: 25%
